Results: patent US9212184B2, “6-thio-substituted imidazo[1,2-a]pyrazines as Mps-1 inhibitors” (BAYER INTELLECTUAL PROPERTY GMBH, priority 2010, dated 2015)

Molecular target: human kinase Mps-1 (Homo sapiens (Human), UniProt P33981)
Experiment: Mps-1 kinase assay (TR-FRET)
Format: biochemical
Conditions: N-terminally GST-tagged human full length recombinant Mps-1; 10 μM ATP; 1 μM peptide substrate; 60 min at 22° C.; read-out: Mps1 IC50
Protocol: The human kinase Mps-1 phosphorylates a biotinylated substrate peptide. Detection of the phosphorylated product is achieved by time-resolved fluorescence resonance energy transfer (TR-FRET) from Europium-labelled anti-phospho-Serine/Threonine antibody as donor to streptavidin labelled with cross-linked allophycocyanin (SA-XLent) as acceptor. Compounds are tested for their inhibition of the kinase activity.
N-terminally GST-tagged human full length recombinant Mps-1 kinase (purchased from Invitrogen, Karslruhe, Germany, cat. no PV4071) was used. As substrate for the kinase reaction a biotinylated peptide of the amino-acid sequence PWDPDDADITEILG (C-terminus in amide form, purchased from Biosynthan GmbH, Berlin) was used.
For the assay 50 nL of a 100-fold concentrated solution of the test compound in DMSO was pipetted into a black low volume 384 well microtiter plate (Greiner Bio-One, Frickenhausen, Germany), 2 μl of a solution of Mps-1 in assay buffer [0.1 mM sodium-ortho-vanadate, 10 mM MgCl2, 2 mM DTT, 25 mM Hepes pH 7.7, 0.05% BSA, 0.001% Pluronic F-127] were added and the mixture was incubated for 15 min at 22° C. to allow pre-binding of the test compounds to Mps-1 before the start of the kinase reaction. […]
The resulting mixture was incubated 1 h at 22° C. to allow the binding of the phosphorylated peptide to the anti-phospho(Ser/Thr)-Europium-antibody. Subsequently the amount of phosphorylated substrate was evaluated by measurement of the resonance energy transfer from the Europium-labelled anti-phospho(Ser/Thr) antibody to the Streptavidin-XLent. Therefore, the fluorescence emissions at 620 nm and 665 nm after excitation at 350 nm was measured in a Viewlux TR-FRET reader (PerkinElmer LAS, Rodgau-Jügesheim, Germany). The “blank-corrected normalized ratio” (a Viewlux specific readout, similar to the traditional ratio of the emissions at 665 nm and at 622 nm, in which blank and Eu-donor crosstalk are subtracted from the 665 nm signal before the ratio is calculated) was taken as the measure for the amount of phosphorylated substrate. […]

human kinase Mps-1, sequence (P33981 whole entry): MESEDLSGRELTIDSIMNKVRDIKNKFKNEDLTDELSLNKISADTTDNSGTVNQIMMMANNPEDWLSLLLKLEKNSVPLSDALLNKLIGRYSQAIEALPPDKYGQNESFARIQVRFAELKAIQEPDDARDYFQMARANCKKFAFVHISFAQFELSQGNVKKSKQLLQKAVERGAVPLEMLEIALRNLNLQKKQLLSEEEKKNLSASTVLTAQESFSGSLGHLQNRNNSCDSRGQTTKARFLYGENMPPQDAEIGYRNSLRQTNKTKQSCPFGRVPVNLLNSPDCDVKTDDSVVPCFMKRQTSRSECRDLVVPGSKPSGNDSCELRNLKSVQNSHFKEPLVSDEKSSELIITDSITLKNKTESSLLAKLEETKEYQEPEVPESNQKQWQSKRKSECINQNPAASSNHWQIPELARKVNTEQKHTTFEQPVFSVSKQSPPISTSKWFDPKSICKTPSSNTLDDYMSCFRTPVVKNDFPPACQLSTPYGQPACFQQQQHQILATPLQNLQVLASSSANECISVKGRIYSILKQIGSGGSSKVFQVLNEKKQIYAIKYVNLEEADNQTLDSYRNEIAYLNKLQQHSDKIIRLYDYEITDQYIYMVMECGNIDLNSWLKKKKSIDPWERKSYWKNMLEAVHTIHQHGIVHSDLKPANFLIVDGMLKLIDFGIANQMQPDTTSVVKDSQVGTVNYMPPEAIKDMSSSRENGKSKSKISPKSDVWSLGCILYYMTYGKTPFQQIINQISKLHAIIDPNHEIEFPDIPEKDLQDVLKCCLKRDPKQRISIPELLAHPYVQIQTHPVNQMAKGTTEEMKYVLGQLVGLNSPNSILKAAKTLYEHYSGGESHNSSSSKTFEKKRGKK

In the case of `CSc1cn2c(-c3ccc(C(=O)NC4CC4)cc3)cnc2c(NCC(C)C)n1` [Example 1-2, N-cyclopropyl-4-{8-[(2-methylpropyl)amino]-6-(methylsulfanyl)imidazo[1,2-a]pyrazin-3-yl}benzamide], the IC50 is reported as 5 nM.
Work on `CSc1cn2c(-c3ccc(C(=O)NC4CC4)c(C)c3)cnc2c(NCCC(F)(F)F)n1` [Example 1-3, N-cyclopropyl-2-methyl-4-{6-(methylsulfanyl)-8-[(3,3,3-trifluoropropyl)amino]imidazo[1,2-a]pyrazin-3-yl} benzamide] yielded an IC50 of 8.6 nM.
In the case of `CSc1cn2c(-c3ccc(C(=O)NC4CC4)c(C)c3)cnc2c(NCC(C)(C)O)n1` [Example 1-4, N-cyclopropyl-4-{8-[(2-hydroxy-2-methylpropyl)amino]-6-(methylsulfanyl)imidazo [1,2-a]pyrazin-3-yl}-2-methylbenzamide], the IC50 is reported as 64.8 nM.
